# Data taken from patent US5143911A, “Antibiotic C-3 di-hydroxyphenyl substituted cephalosporin compounds, compositions and method of use thereof” (Bristol-Myers Squibb Company, priority 1990, dated 1992).
# How the values were obtained:
# [1] = tested on: Penicillin (PC)sensitive S. (5 strains); test: MIC, two-fold serial agar dilution, Mueller-Hinton agar (geometric mean, group Gp-Ia); type: cell-based, S. aureus; details: Staphylococcus aureus
# Description: (§1) For a primary evaluation of some representative compounds of this invention, minimum inhibitory concentrations (MIC's) were determined against 32 strains of test organisms by two-fold serial agar dilution method in Mueller-Hinton agar.
# Gp-Ia: Penicillin (PC)sensitive S.
# [2] = tested on: PCresistant S. aureus; test: MIC, two-fold serial agar dilution, Mueller-Hinton agar (geometric mean, group Gp-Ib); type: cell-based; details: Staphylococcus aureus, penicillin-resistant S. aureus, 5 strains
# Description: as §1
# GpIb: PCresistant S. aureus
# [3] = tested on: Cephalothin (CET)sensitive E. coli(2), Kl. pneumoniae(1) and Pr. mirabilis(2); test: MIC, two-fold serial agar dilution, Mueller-Hinton agar (geometric mean, group Gn-Ia); type: cell-based; details: 5 strains
# Description: as §1
# GnIa: Cephalothin (CET)sensitive E. coli(2)*, Kl. pneumoniae(1) and Pr.
# [4] = tested on: CETresistant E. coli(3), and Kl. pneumoniae(2); test: MIC, two-fold serial agar dilution, Mueller-Hinton agar (geometric mean, group Gn-Ib); type: cell-based; details: Escherichia coli, read-out: Geometric Mean of MIC, Gn-Ib
# Description: as §1
# GnIb: CETresistant E. coli(3), and Kl. pneumoniae(2)
# [5] = tested on: M. morganii(1), Ent. cloacae(2), and Ser. marcescens(2); test: MIC, two-fold serial agar dilution, Mueller-Hinton agar (geometric mean, group Gn-II); type: cell-based; details: 5 strains
# Description: as §1
# GnII: M. morganii(1), Ent. cloacae(2), and Ser. marcescens(2)
# [6] = tested on: Ps. aeruginosa (7); test: MIC, two-fold serial agar dilution, Mueller-Hinton agar (geometric mean, group Gn-III); type: cell-based; details: Pseudomonas aeruginosa, 7 strains
# Description: as §1
# GnIII: Ps. aeruginosa (7)
# [7] = tested on: B. fragilis A 22693; test: In vitro activity against anaerobes (MIC), two-fold serial agar dilution, GAM agar; type: cell-based; details: Bacteroides fragilis, A22693, Gn, Beta-Lactamase(-)
# [8] = tested on: B. fragilis A 22053; test: as above; type: cell-based; details: Bacteroides fragilis, A22053, Gn, Beta-Lactamase(-)
# [9] = tested on: B. fragilis A 22021; test: as above; type: cell-based; details: Bacteroides fragilis, A22021, Gn, Beta-Lactamase(-)
# [10] = tested on: B. fragilis A 21916; test: as above; type: cell-based; details: Bacteroides fragilis, A21916, Gn, Beta-Lactamase(-)
# [11] = tested on: B. fragilis A 22534; test: as above; type: cell-based; details: Bacteroides fragilis, A22534, Gn, Beta-Lactamase(+)
# [12] = tested on: B. fragilis A 22695; test: as above; type: cell-based; details: Bacteroides fragilis, A22695, Gn, Beta-Lactamase(+)
# [13] = tested on: B. fragilis A 22533; test: as above; type: cell-based; details: Bacteroides fragilis, A22533, Gn, Beta-Lactamase(+)
# [14] = tested on: B. fragilis CUH-108; test: as above; type: cell-based; details: Bacteroides fragilis, CUH108, Gn, Beta-Lactamase(+), Clindamycin-resistant
# Description: In vitro activity against anaerobic bacteria was determined on eight strains of B. fragilis by two-fold serial agar dilution method in GAM agar.
# [15] = tested on: C. difficile A 21675; test: In vitro activity against anaerobes (MIC); type: cell-based; details: Clostridioides difficile, A21675, Gp, Clindamycin-resistant
# [16] = tested on: C. perfringens A9635; test: microbe, parasite or virus in culture; type: cell-based; details: Clostridium perfringens
# [17] = tested on: P. acnes A 21933; test: In vitro activity against anaerobes (MIC); type: cell-based; details: Cutibacterium acnes, A21933, Gp
# [18] = tested on: E. coli Juhl; test: MIC against the infecting organism (Table 2); details: Escherichia coli
# [19] = tested on: P. aeruginosa 9843A; test: MIC against the infecting organism (Table 2); details: Pseudomonas aeruginosa
# [20] = tested on: S. aureus Smith; details: Staphylococcus aureus, in Mus musculus, im, read-out: PD50
# [21] = tested on: E. coli Juhl; details: Escherichia coli, in Mus musculus, im, read-out: PD50
# [22] = tested on: S. aureus Smith; test: MIC against the infecting organism (Table 2); details: Staphylococcus aureus
SMILES,MIC [1],MIC [2],MIC [3],MIC [4],MIC [5],MIC [6],MIC [7],MIC [8],MIC [9],MIC [10],MIC [11],MIC [12],MIC [13],MIC [14],MIC [15],MIC [16],MIC [17],MIC [18],MIC [19],ED50 [20],other results
"CO/N=C(\C(=O)NC1C(=O)N2C(C(=O)O)=C(/C=C/COC(=O)c3ccc(O)c(O)c3)CS[C@H]12)c1nsc(N)n1 (stereo partly shown) [Ib, 7-[(Z)-2-(5-Amino-1,2,4-thiadiazol-3-yl)-2-methoxyiminoacetamido]-3-[(E)-3-(3,4-dihydroxybenzoyloxy)-1-propen-1-yl]-3-cephem-4carboxylic acid]",3.4 µg/mL,3.1 µg/mL,0.022 µg/mL,0.026 µg/mL,0.53 µg/mL,0.49 µg/mL,3.1 µg/mL,3.1 µg/mL,0.2 µg/mL,12.5 µg/mL,> 50 µg/mL,25 µg/mL,> 50 µg/mL,> 50 µg/mL,25 µg/mL,0.4 µg/mL,0.8 µg/mL,0.1 µg/mL,0.4 µg/mL,0.68 mg/kg,ED50 [21]: 0.037 mg/kg
"CC(C)(O/N=C(\C(=O)NC1C(=O)N2C(C(=O)O)=C(/C=C/COC(=O)c3ccc(O)c(O)c3)CS[C@H]12)c1csc(N)n1)C(=O)O (stereo partly shown) [Ic, 7-[(Z)-2-(2-Aminothiazol-4-yl)-2-(1-carboxy-1-methylethoxyimino)acetamido]-3-[(E)-3-(3,4-dihydroxybenzoyloxy)-1-propen-1yl]-3-cephem-4-carboxylic acid]",8.3 µg/mL,13 µg/mL,0.022 µg/mL,0.019 µg/mL,0.17 µg/mL,0.82 µg/mL,3.1 µg/mL,0.8 µg/mL,0.2 µg/mL,0.8 µg/mL,> 100 µg/mL,3.1 µg/mL,> 100 µg/mL,12.5 µg/mL,50 µg/mL,0.4 µg/mL,0.8 µg/mL,0.2 µg/mL,0.2 µg/mL,2.2 mg/kg,MIC [22]: 12.5 µg/mL; ED50 [21]: 0.062 mg/kg
